This test has as its target T1, SCD5 (Homo sapiens, UniProt Q86SK9).
T1 construct: host or cells: S. cerevisiae ole1Δ strain (W303 pdr1Δ pdr3Δ background), plasmid pRS316 with TDH3 promoter and CYC1 terminator
T1 sequence (Q86SK9 1-330): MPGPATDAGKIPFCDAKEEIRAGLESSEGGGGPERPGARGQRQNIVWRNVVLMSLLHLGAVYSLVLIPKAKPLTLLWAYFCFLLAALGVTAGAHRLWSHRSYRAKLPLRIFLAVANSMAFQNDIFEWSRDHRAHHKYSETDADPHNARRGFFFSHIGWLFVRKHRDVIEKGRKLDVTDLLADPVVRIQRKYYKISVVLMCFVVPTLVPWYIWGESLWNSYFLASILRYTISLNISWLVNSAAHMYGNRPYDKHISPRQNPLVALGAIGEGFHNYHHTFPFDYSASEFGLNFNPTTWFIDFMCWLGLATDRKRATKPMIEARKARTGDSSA
Description: Growth inhibition of humanized yeast strain expressing SCD5 as sole desaturase. Type of test: cell-based. Here is the method:
Strain oleΔ (yeast ole1 deletion mutant) was constructed by deleting OLE1 with NAT-MX6 in BY4741, amplifying the deletion cassette from the genomic DNA of the resulting strain with primers flanking the ORF by 1000 bp upstream and downstream, transforming the resulting deletion cassette into W303 pdr1Δ pdr3Δ, and plating transformants on YPD media containing G418 (200 μg/mL) and nourseothricin ([…]) with 0.01% TWEEN®-20 and 0.5 mM oleic and palmitoleic acids.
The coding sequence of yeast OLE1 was also cloned into this plasmid). These clones were then transformed into the ole1Δ strain and plated on CSM-Ura media (CSM lacking uracil) with 2% glucose (w/v) and independent colonies were isolated and amplified.
All compound profiling experiments were performed using the same basic protocol. Different genetic backgrounds (e.g., gene deletions) or conditions (e.g., addition of oleic and palmitoleic acid) were replaced as indicated below.
Yeast were cultured using standard techniques in complete synthetic media (CSM) and yeast nitrogen base supplemented with 2% (w/v) carbon source (glucose, raffinose, or galactose) to regulate the expression of the toxic disease protein. An initial starter culture was inoculated in 3 mL CSM-Glucose media and incubated overnight in a 30° C. shaker incubator (225 rpm). Saturated morning cultures were then diluted 1:20 in fresh CSM-Raffinose media and grown for 6 h to an OD600 (optical density) of ˜0.4-0.8 at 30° C. with shaking.
Compound administration was performed in two separate steps. First, 15 μL of CSM-Galactose (induces expression of toxic protein) was dispensed into clear 384 well assay plates using a MULTIDROP™ Combi reagent dispenser. […] The cultures described above were then diluted to a 2× concentration (0.03 and 0.08 for alpha-synuclein and ApoE, final ODsoo of 0.015 and 0.04) in CSM-Galactose. For wild-type and Ole1/SCD1/SCD5 plasmid-containing strains, the 2× cell density was 0.02. […] For 96-well assays (FIGS. 1A and 1B), compound dilutions in DMSO were generated in 96 well plates and 1 μL was manually pipetted into 96 well clear bottom assay plates.
For experiments using a plasmid-borne copy of Ole1, SCD1, or SCD5 (FIGS. 3B, 6, and 7), media lacking uracil (SX-Ura, where X is glucose, raffinose, or galactose), was used for all steps of the compound profiling protocol to ensure its maintenance throughout the assay.
After yeast delivery, assay plates were incubated under humidified conditions at 30° C. for 24 to 40 h. ApoE4 rescue experiments were stopped at 24 h, aSyn experiments at 40 h, Ole1 at 24 h, and SCD1/SCD5 at 40 h. The growth of yeast was monitored by reading the ODsoo of each well using a microplate reader (Perkin Elmer EnVision™).

Where [1] appears, read: yeast strain expressing human SCD5 as sole desaturase, Table 8.
Setting [2] is: humanized yeast strain expressing SCD5.

In turn, `CC1(OC(=O)N2CCC(c3noc(-c4cc(C5CCOC5)c(F)cn4)n3)CC2)CC1` (stereo not shown) [Compound 1298] gave an IC50 under setting [1] of 30 nM. Take `CC(C)n1ncc2ccc(-c3noc(C4CCN(C(=O)c5ccc(Cl)c(F)c5)CC4)n3)cc21` [Compound 541]: under setting [2], the IC50 was > 45000 nM.

Molecule `CC(C)(C)OC(=O)N1CCC(c2noc(-c3ccnc(-c4cocn4)c3)n2)CC1` [Compound 1293] showed an IC50 under setting [1] of 490 nM. Molecule `CC1(OC(=O)N2CCC(c3noc(-c4ccnc(-c5cocn5)c4)n3)CC2)CC1` [Compound 1310] returned an IC50 under setting [1] of 470 nM. Take `CC(C)C(=O)N1CCC(c2noc(-c3cncc(C4CCOC4)c3)n2)CC1` (stereo not shown) [Compound 1199]: it took 3780 nM to reach half-maximal inhibition under setting [1] (IC50). `CCC(=O)N1CCC(c2noc(-c3ccnc(N4CCC(F)(F)C4)c3)n2)CC1` [Compound 1248] came in with an IC50 under setting [1] of 6930 nM. Under setting [1], `CC(C)(C)OC(=O)N1CCC(c2noc(-c3ccc(C4CCOC4)nc3)n2)CC1` (stereo not shown) [Compound 1262] came in with an IC50 of 14100 nM. Compared with the last molecule, the IC50 is about 2-fold higher. `CC(C)n1ncc2ccc(-c3nc(C4CCN(C(=O)c5ccccn5)CC4)no3)cc21` [Compound 499]: half-maximal inhibition under setting [2] (IC50) was put at 1100 nM. In other words, the single-digit micromolar range. As for `O=C(C1CC1)N1CCC(c2noc(-c3ccnc(N4CCC(F)(F)C4)c3)n2)CC1` [Compound 1247], inhibition under setting [1] was half-maximal at 1050 nM (IC50). That is a single-digit micromolar value. The molecule `O=C(C1CC1)N1CCC(c2noc(-c3ccc(F)c(N4CCOCC4)c3)n2)CC1` [Compound 1259] came in with an IC50 under setting [1] of 40 nM. This IC50 lies about 26-fold lower than the previous one.

Consider `COC(=O)N1CCC(c2nc(-c3ccc4cnn(C(F)F)c4c3)no2)CC1` [Compound 561], for which the IC50 under setting [2] was determined as 29400 nM. Consider `CC1CN(c2cc(-c3nc(C4CCN(C(=O)OC(C)(C)C)CC4)no3)ccc2F)CC(C)O1` (stereo not shown) [Compound 1282], for which 220 nM corresponded to half-maximal inhibition under setting [1] (IC50).

Turning to `COC(=O)N1CCC(c2nc(-c3ccnc(C4CCOC4)c3)no2)CC1` (stereo not shown) [Compound 1230], it took 6880 nM to reach half-maximal inhibition under setting [1] (IC50). With `CC(C)n1ncc2ccc(N3CC4(CCN(C(=O)c5ccccc5Cl)CC4)C3)cc21` [Compound 534], the IC50 under setting [2] was 36800 nM. Under setting [2], `CC(C)n1ncc2ccc(-c3noc(C4CCN(C(=O)c5ccc(Cl)cn5)CC4)n3)cc21` [Compound 586] had an IC50 of 3770 nM. The molecule `CC(C)(C)OC(=O)N1CCC(c2noc(-c3ccnc(-c4cnoc4)c3)n2)CC1` [Compound 1213] came in with an IC50 under setting [1] of 60 nM. Under setting [1], `CC(C)C(=O)N1CCC(c2noc(-c3ccc(C#N)c(N4CCOCC4)c3)n2)CC1` [Compound 1291] returned an IC50 of 650 nM. For `CC(C)n1ncc2ccc(-c3noc([C@H]4CC[C@H](NC(=O)OC(C)(C)C)CC4)n3)cc21` [Compound 537], under setting [2], the IC50 is > 45000 nM. On to `O=C(C1CCC1)N1CCC(c2noc(-c3ccnc(N4CCC(F)(F)C4)c3)n2)CC1` [Compound 1246], for which, under setting [1], the midpoint of inhibition, the IC50, lay at 400 nM.

In turn, `O=C(C1CCC1)N1CCC(c2noc(-c3ccnc([C@H]4CCOC4)c3)n2)CC1` [Compound 1240] came in with an IC50 under setting [1] of 200 nM. Take `CC1(OC(=O)N2CCC(c3noc(-c4cncc(N5CCC(F)(F)C5)c4)n3)CC2)CC1` [Compound 1198]: under setting [1], 1720 nM corresponded to half-maximal inhibition (IC50). Against the preceding molecule, the IC50 is about 8.6-fold higher. Turning to `Cc1nn(C)c2cc(-c3nsc(C4CCN(C(=O)OC(C)(C)C)CC4)n3)ccc12` [Compound 503], inhibition under setting [2] was half-maximal at 316 nM (IC50). With `CC(C)CS(=O)(=O)N1CCC(c2nc(-c3ccc4cnn(C(C)C)c4c3)no2)CC1` [Compound 565], the IC50 under setting [2] was > 45000 nM. In the case of `CCc1cnc(N2CCC(c3nc(-c4ccc5c(C)nn(C)c5c4)no3)CC2)cn1` [Compound 560], the IC50 under setting [2] is > 45000 nM.

For `COC(=O)C(O)Cn1ncc2ccc(-c3nc(C4CCN(C(=O)OC(C)(C)C)CC4)no3)cc21` (stereo not shown) [Compound 1244], the IC50 under setting [1] was 760 nM. This counts as sub-micromolar. `CC(C)n1ncc2ccc(-c3noc(C4CCN(C(=O)c5nccs5)CC4)n3)cc21` [Compound 549]: under setting [2], the IC50 stood at 1210 nM.

In the case of `Cc1nn(C)c2cc(-c3noc(C4CCN(c5nc(C(C)C)no5)CC4)n3)ccc12` [Compound 581], the IC50 under setting [2] was > 45000 nM. As to `C[C@@H](O)C(=O)N1CCC(c2nc(-c3ccc4cnn(C5COC5)c4c3)no2)CC1` [Compound 597], the IC50 under setting [2] was > 45000 nM. `CC(C)CC(=O)N1CCC(c2noc(-c3cnc4cnn(C5COC5)c4c3)n2)CC1` [Compound 1214] registered an IC50 under setting [1] of 390 nM. Take `CC(C)(C)OC(=O)N1CCC(c2noc(-c3cc(N4CCC(F)(F)C4)c(F)cn3)n2)CC1` [Compound 1287]: the IC50 under setting [1] came to 340 nM. Under setting [1], `CC1(OC(=O)N2CCC(c3noc(-c4ccc(C5CCOC5)nc4)n3)CC2)CC1` (stereo not shown) [Compound 1268] yielded an IC50 of 32600 nM. Turning to `CC(C)n1ncc2ccc(-c3noc(C4CCN(C(=O)c5ncc(Cl)s5)CC4)n3)cc21` [Compound 589], under setting [2], the midpoint of inhibition, the IC50, lay at 356 nM. `CC1(OC(=O)N2CCC(c3noc(-c4ccnc(-c5cnoc5)c4)n3)CC2)CC1` [Compound 1220] registered an IC50 under setting [1] of 100 nM. That is a sub-micromolar value. As to `Cc1nn(C)c2cc(-c3noc([C@@H]4CCN(C(=O)CNC(=O)c5ccccc5)CC4(F)F)n3)ccc12` [Compound 577], the IC50 under setting [2] was > 45000 nM. Regarding `COC(=O)N1C[C@H]2CN(c3nc(-c4ccc5cnn(C(C)C)c5c4)no3)C[C@@H]2C1` [Compound 568], under setting [2], the IC50 is > 45000 nM. With `CC(C)C(=O)N1CCC(c2noc(-c3ccnc(-c4cnco4)c3)n2)CC1` [Compound 1264], under setting [1], the midpoint of inhibition, the IC50, lay at 3270 nM. With `CC(C)n1ncc2ccc(-c3noc(C4CCN(S(=O)(=O)c5ccccc5Cl)CC4)n3)cc21` [Compound 540], the IC50 under setting [2] was > 45000 nM. Consider `CC(C)(C)OC(=O)N1CCC(c2noc(-c3ccnc(-c4ccon4)c3)n2)CC1` [Compound 1277], for which 2500 nM corresponded to half-maximal inhibition under setting [1] (IC50). The same measure, in the same setting: next, `O=C(OC1CCC1)N1CCC(c2noc(-c3ccc(=O)n(C4COC4)c3)n2)CC1` [Compound 1309]: 1030 nM. Turning to `CC(C)n1ncc2ccc(-c3noc(N4C[C@@H]5CN(C(=O)CC(C)(C)C)C[C@H]5C4)n3)cc21` [Compound 569], the IC50 under setting [2] is > 45000 nM. The same measure, in the same setting: next, `CC(C)N1C(=O)CCc2ccc(-c3noc(C4CCN(C(=O)OC(C)(C)C)CC4)n3)cc21` [Compound 572]: 15000 nM. For `CC(C)n1ncc2ccc(-c3noc(C4CCN(C(=O)CNC(=O)c5cccc(C#N)c5)CC4)n3)cc21` [Compound 556], the IC50 under setting [2] was > 45000 nM.

In turn, `CCC(=O)N1CCC(c2noc(-c3cc(C4CCOC4)ccn3)n2)CC1` (stereo not shown) [Compound 1281] yielded an IC50 under setting [1] of 6990 nM. `CC1(OC(=O)N2CCC(c3noc(-c4ccnc(-c5ccon5)c4)n3)CC2)CC1` [Compound 1306] registered an IC50 under setting [1] of 5380 nM. Consider `CC(C)C(=O)N1CCC(c2noc(-c3cc(C4CCOC4)ccn3)n2)CC1` (stereo not shown) [Compound 1204], for which half-maximal inhibition under setting [1] (IC50) required 2390 nM. Molecule `COC(=O)N1CCN(c2cc(-c3ccc4cnn(C5COC5)c4n3)on2)CC1` [Compound 1238] displayed an IC50 under setting [1] of 24600 nM.

`CC(C)n1ncc2ccc(-c3noc(C4CCN(C(=O)c5ccccc5F)CC4)n3)cc21` [Compound 532] yielded a half-inhibitory concentration (IC50) under setting [2] of 2150 nM. Molecule `O=C(N1CCC(c2noc(-c3cc(C4CCOC4)ncc3F)n2)CC1)C1(F)CCC1` (stereo not shown) [Compound 1275] yielded an IC50 under setting [1] of 20 nM.

Turning to `CCC(=O)N1CCC(c2noc(-c3cc(N4CCOCC4)ccn3)n2)CC1` [Compound 1300], inhibition under setting [1] was half-maximal at 60 nM (IC50). Turning to `CC(C)n1ncc2ccc(-c3noc(N4CC5(CCN(C(=O)OC(C)(C)C)CC5)C4)n3)cc21` [Compound 555], the IC50 under setting [2] was > 45000 nM. For the molecule `Cn1cc2c(n1)CN(c1nc(C3CCN(C(=O)OC(C)(C)C)CC3)no1)CC2` [Compound 1272], inhibition under setting [1] was half-maximal at 7540 nM (IC50). Molecule `CC(C)n1ncc2ccc(-c3noc(C4CCN(C(=O)c5cccs5)CC4)n3)cc21` [Compound 574] yielded an IC50 under setting [2] of 2280 nM.

Values taken from patent US11873298B2, “Compounds and uses thereof” (JANSSEN PHARMACEUTICA NV, priority 2017, dated 2024).
